Assay results: patent US20250144067A1, “PERSONALIZED STARVATION THERAPY FOR CANCER” (Faeth Therapeutics, Inc., priority 2021, published 2025)
Counter-ions that a name gives are not always drawn. Like-named read-outs stand apart in the source and are kept apart here.

Experiments:
[1] = test system: NCI-H292 lung cancer cells; experiment: FDA drug screening, complete media vs cholesterol-free media without statin (TABLE 1); format: cell-based, human
[2] = test system: NCI-H292 lung cancer cells; experiment: FDA drug screening, complete media vs cholesterol-free media with simvastatin (TABLE 2); format: cell-based, human
[3] = Complete minus Cholesterol-free, >0 enhanced anti-cancer activity, about 0 neutral, <0 antagonist
[4] = NCI-H292 cells, cholesterol-free media without statin
[5] = NCI-H292 cells, FDA library drug in cholesterol-free media with simvastatin 0.04 μM
[6] = NCI-H292 cells, FDA library drug in complete media
[7] = complete media vs cholesterol-free media + simvastatin (0.04 μM), >0 enhanced anti-cancer activity, about 0 neutral, <0 antagonist
[8] = NCI-H292 cells, drug in cholesterol-free media with simvastatin 0.04 μM
[9] = NCI-H292 cells, drug in complete media
[10] = complete vs cholesterol-free media, greater than 0 enhanced anti-cancer activity, about 0 neutral, below 0 antagonists
[11] = NCI-H292 cells, FDA drug library screen, cholesterol-free media with simvastatin 0.04 μM
[12] = NCI-H292 cells, FDA drug library screen, complete media
[13] = complete media minus cholesterol-free media + simvastatin, >0 enhanced anti-cancer activity, about 0 neutral, <0 antagonist
[14] = NCI-H292 cells, cholesterol-free media without statin, FDA drug library screen
[15] = NCI-H292 cells, complete media, FDA drug library screen
[16] = Complete minus Cholesterol-free, greater than 0 enhanced anti-cancer activity, about 0 neutral, below 0 antagonist
[17] = NCI-H292 cells, FDA drug library screen, cholesterol-free media without statin
[18] = NCI-H292 cells, cholesterol-free media with simvastatin 0.04 μM, FDA drug library screen (TABLE 2)
[19] = NCI-H292 cells, complete media, FDA drug library screen (TABLE 2)
[20] = complete media minus cholesterol-free media + simvastatin (0.04 μM), >0 enhanced anti-cancer activity, about 0 neutral, <0 antagonist
[21] = complete vs cholesterol-free media, >0 enhanced anti-cancer activity, about 0 neutral, <0 antagonist

| Compound | Difference [1, 3] | Cholesterol-free [1, 4] | Complete ([1]; NCI-H292 cells, complete media) | Difference [2, 7] | Cholesterol-free media + simvastatin (0.04 μM) [2, 8] | Complete Media [2, 9] | Cholesterol-free media + simvastatin (0.04 μM) [2, 11] | Complete Media [2, 12] | Cholesterol-free [1, 14] | Complete [1, 15] | other results |
| --- | --- | --- | --- | --- | --- | --- | --- | --- | --- | --- | --- |
| COc1cc(/C=C/C(=O)O)ccc1O [Ferulic acid] | −0.23 | 1.087 | 0.8516 | −0.34 | – | – | – | – | – | – | Cholesterol-free media + simvastatin (0.04 μM) [2, 5]: 1.055; Complete Media [2, 6]: 0.7118 |
| C=C1CCC2CC1C2(C)C (stereo not drawn) [β-Pinene] | −0.30 | 0.968 | 0.6726 | −0.26 | 1.724 | 1.464 | – | – | – | – | – |
| Nc1c(CC(=O)O)cccc1C(=O)c1ccc(Br)cc1 [Bromfenac (sodium hydrate)] | – | 1.074 | 0.716 | – | – | – | 1.132 | 1.293 | – | – | Difference [1, 10]: −0.36; Difference [2, 13]: 0.16 |
| NC(=O)c1cnccn1 [Pyrazinamide] | 0.04 | – | – | −0.14 | – | – | 0.9396 | 0.8009 | 0.9745 | 1.011 | – |
| C1CCC(C(CC2CCCCN2)C2CCCCC2)CC1 (stereo not drawn) [Perhexiline maleate] | – | – | – | – | – | – | – | – | – | – | Difference [1, 16]: −0.14; Cholesterol-free [1, 17]: 1.139; Complete [1, 12]: 1.003; Cholesterol-free media + simvastatin (0.04 μM) [2, 18]: 0.8717; Complete Media [2, 19]: 0.811; Difference [2, 20]: −0.06 |
| O=C(c1ccc(F)c(F)c1Nc1ccc(I)cc1F)N1CC(O)([C@@H]2CCCCN2)C1 [Cobimetinib] | −0.06 | – | – | – | – | – | – | – | 0.2958 | 0.2361 | Cholesterol-free media + simvastatin (0.04 μM) [2, 18]: 0.5825; Complete Media [2, 19]: 0.5258; Difference [2, 20]: −0.06 |
| CC(C)CCC[C@@H](C)[C@H]1CC[C@H]2[C@@H]3CC=C4C[C@@H](O)CC[C@]4(C)[C@H]3CC[C@]12C [Cholesterol] | −0.27 | 1.34 | 1.074 | −0.63 | – | – | – | – | – | – | Cholesterol-free media + simvastatin (0.04 μM) [2, 5]: 1.697; Complete Media [2, 6]: 1.069 |
| CCCCC(=O)O[C@H]1CC[C@H]2[C@@H]3CCc4cc(O)ccc4[C@H]3CC[C@]12C [Estradiol valerianate] | – | 1.221 | 0.8253 | – | – | – | – | – | – | – | Difference [1, 10]: −0.40; Cholesterol-free media + simvastatin (0.04 μM) [2, 18]: 0.9732; Complete Media [2, 19]: 0.9423; Difference [2, 20]: −0.03 |
| CCCNC(C)C(=O)Nc1c(C)csc1C(=O)OC (stereo not drawn) [Articaine (hydrochloride)] | – | – | – | −0.11 | – | – | 0.9336 | 0.8247 | 1.045 | 1.285 | Difference [1, 21]: 0.24 |
| COc1ncnc(NS(=O)(=O)c2ccc(N)cc2)c1OC [Sulfadoxine] | −0.27 | 1.26 | 0.986 | – | – | – | – | – | – | – | Cholesterol-free media + simvastatin (0.04 μM) [2, 18]: 1.1; Complete Media [2, 19]: 1.093; Difference [2, 20]: −0.01 |
| O=C(OCC(O)CO)c1ccccc1Nc1ccnc2cc(Cl)ccc12 (stereo not drawn) [Glafenine (hydrochloride)] | – | – | – | – | – | – | – | – | – | – | Cholesterol-free [1]: 1.367; Complete [1]: 1.255; Difference [1]: −0.11; Cholesterol-free media + simvastatin (0.04 μM) [2]: 0.8957; Complete Media [2]: 0.9245; Difference [2]: 0.03 |
| N[C@@H]1C[C@H]1c1ccccc1.N[C@@H]1C[C@H]1c1ccccc1.O=S(=O)(O)O [Tranylcypromine (hemisulfate)] | – | – | – | – | – | – | – | – | – | – | Cholesterol-free [1]: 1.175; Complete [1]: 0.8249; Difference [1]: −0.35; Cholesterol-free media + simvastatin (0.04 μM) [2]: 0.8773; Complete Media [2]: 0.7026; Difference [2]: −0.17 |
| CCCCCCCC(=O)OCC(COC(=O)CCCCCCC)OC(=O)CCCCCCC [Tricaprilin] | 0.03 | – | – | −0.12 | – | – | 1.072 | 0.9486 | 0.9476 | 0.9746 | – |
| Prednisolone (disodium phosphate) | – | 1.087 | 0.6422 | – | – | – | 0.4379 | 0.7375 | – | – | Difference [1, 10]: −0.44; Difference [2, 13]: 0.30 |
| Cc1cnc(C(=O)NCCc2ccc(S(=O)(=O)NC(=O)NC3CCCCC3)cc2)cn1 [Glipizide] | – | 1.844 | 1.46 | −0.22 | 1.42 | 1.2 | – | – | – | – | Difference [1, 10]: −0.38 |
| C#CCN(C)Cc1ccccc1 [Pargyline (hydrochloride)] | – | 1.204 | 0.7875 | – | – | – | – | – | – | – | Difference [1, 10]: −0.42; Cholesterol-free media + simvastatin (0.04 μM) [2, 18]: 0.8767; Complete Media [2, 19]: 0.8243; Difference [2, 20]: −0.05 |
| O=C(CCCN1CC=C(n2c(=O)[nH]c3ccccc32)CC1)c1ccc(F)cc1 [Droperidol] | −0.22 | 1.218 | 1.002 | −0.27 | – | – | – | – | – | – | Cholesterol-free media + simvastatin (0.04 μM) [2, 5]: 1.065; Complete Media [2, 6]: 0.7994 |
| O=C(CO)[C@@H](O)[C@H](O)[C@H](O)CO [D-Fructose] | 0.05 | – | – | −0.23 | 1.284 | 1.053 | – | – | 1.151 | 1.203 | – |
| COc1cc2ncnc(Nc3ccc(F)c(Cl)c3)c2cc1OCCCN1CCOCC1 [Gefitinib (hydrochloride)] | – | – | – | −0.08 | – | – | 0.9234 | 0.8455 | 0.6497 | 0.8718 | Difference [1, 21]: 0.22 |
| CCOc1ccc2nc(SCCN3CCOCC3)[nH]c2c1 [Fabomotizole (hydrochloride)] | – | 1.463 | 1.068 | −0.22 | 1.167 | 0.9459 | – | – | – | – | Difference [1, 10]: −0.39 |
| CO[C@@]1(NC(=O)C2SC(=C(C(N)=O)C(=O)O)S2)C(=O)N2C(C(=O)O)=C(CSc3nnnn3C)CS[C@@H]21 (stereo partly drawn) [Cefotetan] | −0.26 | 1.196 | 0.9309 | −0.17 | 1.2 | 1.027 | – | – | – | – | – |
| C[C@H](O)[C@H](O)[C@H]1CNc2nc(N)[nH]c(=O)c2N1 [Sapropterin (dihydrochloride)] | −0.20 | 1.242 | 1.038 | −0.16 | 1.145 | 0.9841 | – | – | – | – | – |
| Trelagliptin (succinate) | – | 1.469 | 1.135 | −0.14 | – | – | 1.757 | 1.617 | – | – | Difference [1, 10]: −0.33 |
| CCCCC1OC(=O)c2ccccc21 (stereo not drawn) [Butylphthalide] | – | – | – | −0.17 | 1.292 | 1.12 | – | – | 0.6966 | 1.343 | Difference [1, 21]: 0.65 |
| CC(C)=CCC/C(C)=C/CC/C(C)=C/CC/C=C(\C)CC/C=C(\C)CCC=C(C)C [Squalene] | – | – | – | −0.19 | 0.9877 | 0.7931 | – | – | 1.273 | 1.566 | Difference [1, 21]: 0.29 |
| Cc1cccc(C)c1NC(=O)C1CCCCN1C (stereo not drawn) [Mepivacaine] | – | – | – | −0.57 | – | – | – | – | – | – | Difference [1, 16]: −0.09; Cholesterol-free [1, 17]: 1.247; Complete [1, 12]: 1.156; Cholesterol-free media + simvastatin (0.04 μM) [2, 5]: 1.558; Complete Media [2, 6]: 0.984 |
| COC(=O)[C@H](c1ccccc1Cl)N1CCc2sccc2C1 [Clopidogrel] | −0.02 | – | – | – | – | – | – | – | 0.9805 | 0.958 | Cholesterol-free media + simvastatin (0.04 μM) [2, 18]: 1.038; Complete Media [2, 19]: 0.969; Difference [2, 20]: −0.07 |
| CN(C)c1nc(N(C)C)nc(N(C)C)n1 [Altretamine] | −0.04 | – | – | −0.17 | 1.135 | 0.9636 | – | – | 0.9853 | 0.9434 | – |
| CC[C@H]1OC(=O)[C@H](C)[C@@H](O[C@H]2C[C@@](C)(OC)[C@@H](O)[C@H](C)O2)[C@H](C)[C@@H](O[C@@H]2O[C@H](C)C[C@H](N(C)C)[C@H]2O)[C@](C)(OC)C[C@@H](C)C(=O)[C@H](C)[C@@H](O)[C@]1(C)O [Clarithromycin] | – | – | – | −0.15 | – | – | 1.214 | 1.064 | – | – | Difference ([1]; Complete minus Cholesterol-free, greater than 0 enhanced anti-cancer activity, about 0 neutral, below 0 antagonists): −0.74; Cholesterol-free ([1]; NCI-H292 cells in cholesterol-free media without statin): 1.607; Complete ([1]; NCI-H292 cells in complete media): 0.8616 |
| CCO[C@H]1O[C@@H]2O[C@@]3(C)CC[C@H]4[C@H](C)CC[C@@H]([C@H]1C)[C@@]24OO3 [Artemotil] | −0.21 | 0.7572 | 0.5514 | −0.16 | – | – | 0.9606 | 0.8046 | – | – | – |
